This note sets out measurements from patent publication US4746736A, “Carbapenem antibiotics” (priority 1986, dated 1988).

In brackets after ≈: the same amount, converted by molar mass. Where two headings read alike, the source gives them in different places.

What is called MIC is the lowest concentration found to suppress growth. A word on the AUC: it is the area under the concentration-time curve, a measure of exposure. Low values mean low exposure, high ones high exposure.

One series has as its system P. rettgeri A22424. The experiment in a line: In vitro MIC by tube dilution, P. rettgeri A22424. Format: cell-based.
A further series deals with S. aureus A-9537. The series is described as follows: In vitro MIC by tube dilution, S. aureus A-9537. Format: cell-based.
The next series deals with K. pneumoniae A20468. The experiment in a line: In vitro MIC by tube dilution, K. pneumoniae A20468. Format: cell-based.
The next series has as its system E. cloacae A-9659. The series is described as follows: In vitro MIC by tube dilution, E. cloacae A-9659. Format: cell-based.
A further series concerns P. morganii A15153. The experiment in a line: In vitro MIC by tube dilution, P. morganii (M. morganii) A15153. Format: cell-based.
The test system of another series is P. aeruginosa A-9843A. The experiment in a line: In vitro MIC by tube dilution, P. aeruginosa A-9843A. Format: cell-based. The following applies: P. aeruginosa A-9843a.
The test system of a further series is K. pneumoniae A-9664. The series is described as follows: In vitro MIC by tube dilution, K. pneumoniae A-9664. Format: cell-based.
The next series deals with E. coli A20341-1. The experiment in a line: In vitro MIC by tube dilution, E. coli A20341-1. Format: cell-based.
A further series concerns E. cloacae A-9656. The series is described as follows: In vitro MIC by tube dilution, E. cloacae A-9656. Format: cell-based.
Another series concerns E. coli A15119. The experiment in a line: In vitro MIC by tube dilution, E. coli A15119. The following applies: E. coli A15119. Format: cell-based.
In a further series the test system is P. mirabilis A-9900. The series is described as follows: In vitro MIC by tube dilution, P. mirabilis A-9900. Format: cell-based.
The subject of series [1] is S. aureus A-9606 (Pen-res.). The series is described as follows: In vitro MIC by tube dilution, S. aureus A-9606 (Pen-res.). The following applies: S. aureus A-9606 (Pen-res). Format: cell-based.
The test system of a further series is S. marcescens A20019. The series is described as follows: In vitro MIC by tube dilution, S. marcescens A20019. Format: cell-based.
The next series deals with P. aeruginosa A21213. The series is described as follows: In vitro MIC by tube dilution, P. aeruginosa A21213. Format: cell-based.
The test system of another series is S. faecalis A20688. The series is described as follows: In vitro MIC by tube dilution, S. faecalis A20688. Format: cell-based.
A short description of series [2]: Blood levels in mice after intramuscular administration. The note with it: 20 mg/kg i.m., mice (compiled table).
Excerpt: Compounds were solubilized in 0.1 M phosphate buffer pH 7.
Values are from a single test; 4 mice used per compound.
Compounds were solubilized in 0.1 M phosphate buffer, pH 7.
Values based on a single test; 4 mice per compound.
Another series deals with S. pyogenes A9604. The series is described as follows: In vitro MIC by tube dilution, S. pyogenes A9604. Format: cell-based.
The subject of a further series is S. pneumoniae A-9585. The experiment in a line: In vitro MIC by tube dilution, S. pneumoniae A-9585. Format: cell-based.
The next series has as its system P. vulgaris A21559. The series is described as follows: In vitro MIC by tube dilution, P. vulgaris A21559. Format: cell-based.
The mark [3] stands for this setting: Staphylococcus aureus, A9537, S. aureus A-9537, no serum, read-out: MIC.
The mark [4] stands for this setting: Enterobacter cloacae, A9659, E. cloacae A-9659, read-out: MIC.
Where [5] appears, read: Klebsiella pneumoniae, A9664, read-out: MIC.
Setting [6] is: Escherichia coli, A203411, read-out: MIC.
Setting [7] is: Enterobacter cloacae, A9656, E. cloacae A-9656, read-out: MIC.
[8] abbreviates: Escherichia coli, read-out: MIC.
[9] abbreviates: Proteus mirabilis, A9900, P. mirabilis A-9900, read-out: MIC.
[10] abbreviates: Staphylococcus aureus, read-out: MIC.
Setting [11] is: Serratia marcescens, read-out: MIC.
The mark [12] stands for this setting: Providencia rettgeri, A22424, P. rettgeri A22424, read-out: MIC.
[13] abbreviates: Morganella morganii, A15153, M. morganii A15153, read-out: MIC.

Turning to `C[C@@H](O)[C@H]1C(=O)N2C(C(=O)[O-])=C(SCc3cn(C)n[n+]3C)C[C@H]12` [Example 15 "A", 3-[4-(N,N-dimethyl-1,2,3-triazolium)methylthio]-6α-[1-(R)-hydroxyethyl]-7-oxo-1-azabicyclo(3.2.0)hept-2-ene-2-carboxylate], the MIC was determined as 0.03 µg/mL (≈ 0.0887 µM) in the series on P. rettgeri A22424 (Providencia rettgeri, P. rettgeri A22424, read-out: MIC); 0.03 µg/mL (≈ 0.0887 µM) in the series with S. aureus A-9537 (Staphylococcus aureus, A9537, S. aureus A-9537 +50% serum, read-out: MIC); 0.03 µg/mL (≈ 0.0887 µM) in the series on S. aureus A-9537 (setting [3]); 0.008 µg/mL (≈ 0.0236 µM) in the series with K. pneumoniae A20468 (Klebsiella pneumoniae, K. pneumoniae A20468, read-out: MIC); 0.016 µg/mL (≈ 0.0473 µM) in the series on E. cloacae A-9659 (setting [4]); 0.03 µg/mL (≈ 0.0887 µM) in the series on P. morganii A15153 (Morganella morganii, M. morganii A15153, read-out: MIC). The MIC with P. aeruginosa A-9843A (Pseudomonas aeruginosa, A9843A, read-out: MIC) was 0.5 µg/mL (≈ 1.48 µM); with K. pneumoniae A-9664 (setting [5]) it was 0.008 µg/mL (≈ 0.0236 µM); in the series on E. coli A20341-1 (setting [6]) it was 0.004 µg/mL (≈ 0.0118 µM); in the series with E. cloacae A-9656 (setting [7]) it was 0.016 µg/mL (≈ 0.0473 µM); in the series on E. coli A15119 (setting [8]) it was 0.004 µg/mL (≈ 0.0118 µM); with P. mirabilis A-9900 (setting [9]) it was 0.008 µg/mL (≈ 0.0236 µM). Also, the minimum inhibitory concentration (MIC) in [1] (setting [10]) was 0.004 µg/mL (≈ 0.0118 µM); with S. marcescens A20019 (setting [11]), 0.008 µg/mL (≈ 0.0236 µM); in the series on P. aeruginosa A21213 (Pseudomonas aeruginosa, P. aeruginosa A21213, read-out: MIC) it was 0.03 µg/mL (≈ 0.0887 µM); in the series with S. faecalis A20688 (Enterococcus faecalis, A20688, S. faecalis A20688, read-out: MIC), 0.13 µg/mL (≈ 0.384 µM).

In series [2], `C[C@@H](O)C1C(=O)N2C(C(=O)[O-])=C(SCc3cn(C)n[n+]3C)CC12` (stereo partly drawn) [Example 15 "C", 3-[4-(N,N-dimethyl-1,2,3-triazolium)methylthio]-6α-[1-(R)-hydroxyethyl]-7-oxo-1-azabicyclo(3.2.0)hept-2-ene-2-carboxylate] came in with an AUC of 7300 ng·h/mL. Moreover, in series [2], the T1/2 turned out to be 10 min. Also, the MIC with P. rettgeri A22424 (P. rettgeri A22424) came to 0.25 µg/mL (≈ 0.739 µM); in the series with S. aureus A-9537 (S. aureus A-9537 +50% serum) it was 0.06 µg/mL (≈ 0.177 µM); with S. aureus A-9537 (S. aureus A-9537, no serum) it was 0.016 µg/mL (≈ 0.0473 µM); against K. pneumoniae A20468 (K. pneumoniae A20468), 0.13 µg/mL (≈ 0.384 µM); in the series with E. cloacae A-9659 (E. cloacae A-9659), 0.13 µg/mL (≈ 0.384 µM); with P. morganii A15153 (M. morganii A15153), 0.25 µg/mL (≈ 0.739 µM). The MIC amounted to 8 µg/mL (≈ 23.6 µM) against P. aeruginosa A-9843A; 0.06 µg/mL (≈ 0.177 µM) in the series with K. pneumoniae A-9664; 0.0003 µg/mL (≈ 0.000887 µM) with S. pyogenes A9604 (S. pyogenes A-9604); 0.03 µg/mL (≈ 0.0887 µM) in the series on E. coli A20341-1; 0.13 µg/mL (≈ 0.384 µM) in the series on E. cloacae A-9656 (E. cloacae A-9656); 0.06 µg/mL (≈ 0.177 µM) against E. coli A15119. Moreover, the MIC with P. mirabilis A-9900 (P. mirabilis A-9900) is 0.06 µg/mL (≈ 0.177 µM); in series [1] it was 0.03 µg/mL (≈ 0.0887 µM); in the series on S. pneumoniae A-9585 (S. pneumoniae A-9585) it was 0.0005 µg/mL (≈ 0.00148 µM); against S. marcescens A20019 it was 0.13 µg/mL (≈ 0.384 µM); with P. vulgaris A21559 (P. vulgaris A21559), 0.06 µg/mL (≈ 0.177 µM); in the series on P. aeruginosa A21213 (P. aeruginosa A21213) it was 0.5 µg/mL (≈ 1.48 µM). This compound also displayed an MIC against S. faecalis A20688 (S. faecalis A20688) of 0.5 µg/mL (≈ 1.48 µM).

For `C[C@@H](O)[C@H]1C(=O)N2C(C(=O)[O-])=C(SCc3cn(CC(=O)O)n[n+]3C)C[C@H]12` [Example 18, Potassium 3-[4-(1-carboxylatomethyl-3-methyl-1,2,3-triazolium)-methanethio]-6α-[1-(R)-hydroxyethyl]-7-oxo-1-azabicyclo[3.2.0]hept-2-ene-2-carboxylate], the MIC was found to be 32 µg/mL in the series with P. rettgeri A22424 (setting [12]); 32 µg/mL in the series on S. aureus A-9537 (setting [3]); 32 µg/mL with P. morganii A15153 (setting [13]); 32 µg/mL with K. pneumoniae A-9664 (setting [5]); 125 µg/mL in the series with E. cloacae A-9656 (setting [7]); 32 µg/mL in the series with P. mirabilis A-9900 (setting [9]). Also, the MIC was more than 125 µg/mL in series [1] (setting [10]); 32 µg/mL in the series with S. marcescens A20019 (setting [11]); 32 µg/mL with P. vulgaris A21559 (Proteus vulgaris, A21559, P. vulgaris A21559, read-out: MIC).

For the compound `C[C@@H](O)[C@H]1C(=O)N2C(C(=O)[O-])=C(SCc3n(C)nc[n+]3C)C[C@H]12` [Example 19, 3-[5-(1,4-Dimethyl-1,2,4-triazolium)methanethio]-6α-[1-(R)-hydroxyethyl]-7-oxo-1-azabicyclo[3.2.0]hept-2-ene-2-carboxylate], the MIC in the series with P. rettgeri A22424 (setting [12]) came to 0.13 µg/mL (≈ 0.384 µM); in the series on S. aureus A-9537 (setting [3]), 0.004 µg/mL (≈ 0.0118 µM); in the series with K. pneumoniae A20468 (Klebsiella pneumoniae, A20468, K. pneumoniae A20468, read-out: MIC) it was 0.06 µg/mL (≈ 0.177 µM); with E. cloacae A-9659 (setting [4]), 0.03 µg/mL (≈ 0.0887 µM); in the series with P. morganii A15153 (setting [13]), 0.06 µg/mL (≈ 0.177 µM); in the series with K. pneumoniae A-9664 (setting [5]), 0.03 µg/mL (≈ 0.0887 µM). Also, the MIC in the series with S. pyogenes A9604 (Streptococcus pyogenes, A9604, S. pyogenes A-9604, read-out: MIC) was 0.002 µg/mL (≈ 0.00591 µM); with E. coli A20341-1 (setting [6]), 0.008 µg/mL (≈ 0.0236 µM); with E. cloacae A-9656 (setting [7]), 0.03 µg/mL (≈ 0.0887 µM); with E. coli A15119 (setting [8]) it was 0.008 µg/mL (≈ 0.0236 µM); in the series on P. mirabilis A-9900 (setting [9]), 0.03 µg/mL (≈ 0.0887 µM); in [1] (setting [10]) it was 0.016 µg/mL (≈ 0.0473 µM). Moreover, the minimal inhibitory concentration (MIC) with S. pneumoniae A-9585 (Streptococcus pneumoniae, A9585, S. pneumoniae A-9585, read-out: MIC) stood at 0.002 µg/mL (≈ 0.00591 µM); with S. marcescens A20019 (setting [11]) it was 0.03 µg/mL (≈ 0.0887 µM); in the series with P. aeruginosa A21213 (Pseudomonas aeruginosa, A21213, P. aeruginosa A21213, read-out: MIC), 0.06 µg/mL (≈ 0.177 µM).
